Measured values taken from patent US8063048B2, “Acetylenyl-pyrazolo-pyrimidine derivatives” (Hoffmann-La Roche Inc., priority 2005, dated 2011).

Row | Structure (SMILES) | melting point
1 | Cc1cc(-c2ccc(C(F)(F)F)cc2)cn2c(C#Cc3cncc(S(=O)(=O)NC(C)(C)CO)c3)cnc12 [Example 228, 5-[8-Methyl-6-(4-trifluoromethyl-phenyl)-imidazo[1,2-a]pyridin-3-ylethynyl]-pyridine-3-sulfonic acid (2-hydroxy-1,1-dimethyl-ethyl)-amide] | 189 °C
2 | Cc1cc(-c2ccc(C(F)(F)F)cc2)cn2c(C#Cc3cncc(S(N)(=O)=O)c3)cnc12 [Example 229, 5-[8-Methyl-6-(4-trifluoromethyl-phenyl)-imidazo[1,2-a]pyridin-3-ylethynyl]-pyridine-3-sulfonic acid amide] | 294 °C
3 | Cc1cc(-c2ccc(Cl)cc2)cn2c(C#Cc3cncc(S(=O)(=O)NC(C)(C)CO)c3)cnc12 [Example 230, 5-[6-(4-Chloro-phenyl)-8-methyl-imidazo[1,2-a]pyridin-3-ylethynyl]-pyridine-3-sulfonic acid (2-hydroxy-1,1-dimethyl-ethyl)-amide] | 215 to 217 °C
4 | Nc1ccc(C#Cc2cnc3c(C(F)(F)F)cc(-c4ccc(C(F)(F)F)cc4)nn23)cn1 [Example 232, 5-[8-Trifluoromethyl-6-(4-trifluoromethyl-phenyl)-imidazo[1,2-b]pyridazin-3-ylethynyl]-pyridin-2-ylamine] | 267 °C
5 | Nc1ccc(C#Cc2cnc3c(C4CC4)cc(-c4ccc(Cl)cc4)cn23)cn1 [Example 233, 5-[6-(4-Chloro-phenyl)-8-cyclopropyl-imidazo[1,2-a]pyridin-3-ylethynyl]-pyridin-2-ylamine] | 246 °C
6 | Nc1ccc(C#Cc2cnn3c(C(F)(F)F)cc(-c4ccc(C(F)(F)F)cc4)cc23)cn1 [Example 235, 5-[7-Trifluoromethyl-5-(4-trifluoromethyl-phenyl)-pyrazolo[1,5-a]pyridin-3-ylethynyl]-pyridin-2-ylamine] | 243 to 245 °C
7 | NS(=O)(=O)c1ccc(C#Cc2cnc3c(C(F)(F)F)cc(-c4ccc(C(F)(F)F)cc4)nn23)s1 [Example 236, 5-[8-Trifluoromethyl-6-(4-trifluoromethyl-phenyl)-imidazo[1,2-b]pyridazin-3-ylethynyl]-thiophene-2-sulfonic acid amide] | 261 to 263 °C
8 | Nc1ccc(C#Cc2cnc3ccc(-c4ccc(C(F)(F)F)cc4)cn23)cn1 [Example 237, 5-[6-(4-Trifluoromethyl-phenyl)-imidazo[1,2-a]pyridin-3-ylethynyl]-pyridin-2-ylamine] | 241 to 244 °C
9 | Nc1ncc(C#Cc2cnc3ccc(-c4ccc(C(F)(F)F)cc4)cn23)cn1 [Example 238, 5-[6-(4-Trifluoromethyl-phenyl)-imidazo[1,2-a]pyridin-3-ylethynyl]-pyrimidin-2-ylamine] | 244 to 246 °C
10 | Nc1ccc(C#Cc2cnc3c(F)cc(-c4ccc(C(F)(F)F)cc4)cn23)cn1 [Example 239, 5-[8-Fluoro-6-(4-trifluoromethyl-phenyl)-imidazo[1,2-a]pyridin-3-ylethynyl]-pyridin-2-ylamine] | 281 to 282 °C
11 | Nc1ncc(C#Cc2cnc3c(F)cc(-c4ccc(C(F)(F)F)cc4)cn23)cn1 [Example 240, 5-[8-Fluoro-6-(4-trifluoromethyl-phenyl)-imidazo[1,2-a]pyridin-3-ylethynyl]-pyrimidin-2-ylamine] | 286 °C
12 | Nc1ccc(C#Cc2cnc3c(F)cc(-c4ccc(Cl)cc4)cn23)cn1 [Example 241, 5-[6-(4-Chloro-phenyl)-8-fluoro-imidazo[1,2-a]pyridin-3-ylethynyl]-pyridin-2-ylamine] | 259 °C
13 | Nc1ncc(C#Cc2cnc3c(F)cc(-c4ccc(Cl)cc4)cn23)cn1 [Example 242, 5-[6-(4-Chloro-phenyl)-8-fluoro-imidazo[1,2-a]pyridin-3-ylethynyl]-pyrimidin-2-ylamine] | 279 to 280 °C
